# According to publication PMC5201133 (Journal of medicinal chemistry, 2016):
# Entries after “also recorded” stand apart in the source; their conditions may differ. Like-named read-outs stand apart in the source and are kept apart here. Marks after values point to notes of the source that are not given here.
# Tests used:
# A2AAR = details: rat (r), archival data ref 22, 24–27, cited from earlier work
# A1AR [1] = details: read-out: A1AR Ki; rat (r); archival data ref 22, 24–27; cited from earlier work
# A3AR [2] = details: read-out: A3AR Ki; rat (r); archival data ref 22, 24–27; cited from earlier work
# A3AR [3] = target: T1, A3AR (Homo sapiens, UniProt P0DMS8); details: read-out: A3AR Ki, archival data ref 22, 24–27; cited from earlier work
# T1 sequence (P0DMS8 1-318): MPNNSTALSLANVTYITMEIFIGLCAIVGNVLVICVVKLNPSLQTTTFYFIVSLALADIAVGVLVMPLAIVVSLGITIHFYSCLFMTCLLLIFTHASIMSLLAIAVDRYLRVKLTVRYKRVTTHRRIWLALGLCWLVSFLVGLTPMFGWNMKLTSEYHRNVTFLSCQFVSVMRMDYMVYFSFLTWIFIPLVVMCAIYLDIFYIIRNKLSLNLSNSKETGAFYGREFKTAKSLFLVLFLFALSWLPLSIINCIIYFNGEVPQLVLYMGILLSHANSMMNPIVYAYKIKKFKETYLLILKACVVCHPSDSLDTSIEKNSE
# 5HT2CR [4] = target: T2, 5HT2CR (Homo sapiens, UniProt P28335); test: 5HT2CR functional calcium mobilization assay; type: cell-based; details: 10 µM; result in words
# T2 sequence (P28335 33-458): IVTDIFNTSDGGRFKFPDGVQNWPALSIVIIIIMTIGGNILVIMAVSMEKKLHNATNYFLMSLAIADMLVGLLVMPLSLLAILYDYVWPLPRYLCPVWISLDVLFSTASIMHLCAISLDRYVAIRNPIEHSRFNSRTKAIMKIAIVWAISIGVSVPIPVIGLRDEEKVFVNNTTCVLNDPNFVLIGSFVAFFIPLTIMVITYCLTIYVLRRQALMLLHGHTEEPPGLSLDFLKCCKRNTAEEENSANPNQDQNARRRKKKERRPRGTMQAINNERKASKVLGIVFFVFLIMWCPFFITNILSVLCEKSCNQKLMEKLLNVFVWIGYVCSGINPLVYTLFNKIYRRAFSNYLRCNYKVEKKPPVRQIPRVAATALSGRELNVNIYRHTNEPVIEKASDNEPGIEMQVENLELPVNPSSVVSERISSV
# 5HT2AR [5] = target: T3, 5HT2AR (Homo sapiens, UniProt P28223); test: 5HT2AR functional calcium mobilization assay; type: cell-based; details: 10 µM; result in words
# T3 sequence (P28223 whole entry): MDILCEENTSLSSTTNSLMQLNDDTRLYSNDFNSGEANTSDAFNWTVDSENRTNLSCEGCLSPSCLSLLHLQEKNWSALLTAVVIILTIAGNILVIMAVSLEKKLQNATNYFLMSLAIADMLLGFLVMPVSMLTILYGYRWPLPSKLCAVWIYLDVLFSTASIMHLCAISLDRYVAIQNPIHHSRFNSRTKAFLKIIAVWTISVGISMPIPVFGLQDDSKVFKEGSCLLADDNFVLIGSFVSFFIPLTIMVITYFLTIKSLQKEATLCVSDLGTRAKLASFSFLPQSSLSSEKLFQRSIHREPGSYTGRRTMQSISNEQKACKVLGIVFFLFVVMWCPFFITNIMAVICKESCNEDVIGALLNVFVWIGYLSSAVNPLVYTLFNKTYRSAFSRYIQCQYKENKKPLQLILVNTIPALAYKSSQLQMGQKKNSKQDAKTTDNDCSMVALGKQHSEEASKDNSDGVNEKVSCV
# [6] = Stability in human plasma; type: in vitro ADME; details: for remaining at 2 h: human, plasma, Stability in plasma, % remaining at 120 min
# [7] = test system: 5 CYP isozymes (A2, 2C9, 2C19, 2D6, 3A4); test: Inhibition of 5 CYP isozymes; type: in vitro ADME; details: human
# CACO cell permeability = type: in vitro ADME; details: human
# [8] = Cytotoxicity in HepG2 cells; type: cell-based; details: human
# 5HT2BR [9] = target: T4, 5HT2BR (Homo sapiens, UniProt P41595); type: cell-based
# T4 sequence (P41595 whole entry): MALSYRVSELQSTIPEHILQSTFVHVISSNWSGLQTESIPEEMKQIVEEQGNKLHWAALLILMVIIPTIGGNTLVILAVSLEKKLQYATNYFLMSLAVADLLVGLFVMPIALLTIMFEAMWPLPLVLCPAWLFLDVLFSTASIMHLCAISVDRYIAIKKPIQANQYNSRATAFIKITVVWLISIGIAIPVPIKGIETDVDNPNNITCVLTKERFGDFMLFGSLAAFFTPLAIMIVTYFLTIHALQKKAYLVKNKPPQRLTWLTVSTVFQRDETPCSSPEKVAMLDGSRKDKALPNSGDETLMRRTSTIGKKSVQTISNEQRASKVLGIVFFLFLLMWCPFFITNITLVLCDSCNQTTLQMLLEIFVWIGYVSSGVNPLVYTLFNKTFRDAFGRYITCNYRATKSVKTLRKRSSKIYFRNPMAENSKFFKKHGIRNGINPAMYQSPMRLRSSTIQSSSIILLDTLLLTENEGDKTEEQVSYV
# 5HT2BR [10] = target: T4, 5HT2BR; type: binding
# CACO-2 cells = test: CACO cell permeability; type: in vitro ADME; details: CACO-2 cells
# A3AR [11] = target: T1, A3AR; test: A3AR binding, [125I]46
# human 5HT5AR = human 5HT5AR (Homo sapiens, UniProt P47898); test: 5HT5AR binding; details: result in words
# Chain of human 5HT5AR (P47898 whole entry): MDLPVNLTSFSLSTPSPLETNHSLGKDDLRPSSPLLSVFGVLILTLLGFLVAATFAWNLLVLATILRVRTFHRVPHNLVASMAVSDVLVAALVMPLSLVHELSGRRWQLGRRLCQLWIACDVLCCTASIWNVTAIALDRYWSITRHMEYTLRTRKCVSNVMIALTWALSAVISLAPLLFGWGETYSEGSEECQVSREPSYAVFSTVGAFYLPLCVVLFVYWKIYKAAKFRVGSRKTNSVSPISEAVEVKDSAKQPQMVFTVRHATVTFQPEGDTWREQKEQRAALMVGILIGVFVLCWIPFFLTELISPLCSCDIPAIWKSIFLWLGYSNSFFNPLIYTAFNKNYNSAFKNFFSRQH
# A1AR [12] = target: T5, A1AR (Homo sapiens, UniProt P30542); test: A1AR binding, [3H]N6-phenylisopropyladenosine 45
# T5 sequence (P30542 1-326): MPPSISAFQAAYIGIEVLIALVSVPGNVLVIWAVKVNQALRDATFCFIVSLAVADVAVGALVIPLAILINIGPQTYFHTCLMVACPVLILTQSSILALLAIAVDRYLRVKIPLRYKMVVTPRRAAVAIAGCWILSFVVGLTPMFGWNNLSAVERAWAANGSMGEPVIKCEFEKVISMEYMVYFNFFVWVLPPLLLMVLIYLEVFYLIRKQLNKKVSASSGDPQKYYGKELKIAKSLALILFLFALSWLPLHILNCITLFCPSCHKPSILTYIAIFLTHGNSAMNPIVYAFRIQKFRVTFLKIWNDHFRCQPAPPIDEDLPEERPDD
# 5HT2CR [13] = target: T2, 5HT2CR; test: 5HT2CR radioligand binding, [3H]mesulergine 44, Flp IN HEK cell membranes; details: 5HT2CR Ki, mean ± SEM; ^d n = 1
# hA2AAR = hA2AAR (Homo sapiens, UniProt P29274); test: A2AAR binding, [3H]47, HEK293 cell membranes; details: read-out: A2AAR % inhibition
# Chain of hA2AAR (P29274 whole entry): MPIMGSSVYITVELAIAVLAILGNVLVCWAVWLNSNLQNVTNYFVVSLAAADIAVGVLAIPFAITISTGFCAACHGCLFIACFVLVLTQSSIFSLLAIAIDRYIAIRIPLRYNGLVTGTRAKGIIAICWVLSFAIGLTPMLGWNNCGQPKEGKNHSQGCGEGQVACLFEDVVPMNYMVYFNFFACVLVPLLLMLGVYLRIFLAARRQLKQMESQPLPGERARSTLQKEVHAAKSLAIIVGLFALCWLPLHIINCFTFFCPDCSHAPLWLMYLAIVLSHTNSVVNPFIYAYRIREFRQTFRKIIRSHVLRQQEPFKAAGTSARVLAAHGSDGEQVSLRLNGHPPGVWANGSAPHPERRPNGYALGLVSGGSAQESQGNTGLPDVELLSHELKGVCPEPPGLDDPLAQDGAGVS
# 5HT2AR [14] = target: T3, 5HT2AR; test: 5HT2AR radioligand binding, [3H]ketanserin, HEKT cell membranes; details: read-out: 5HT2AR % inhibition
# 5HT2CR [15] = target: T2, 5HT2CR; details: read-out: 5HT2CR Ki; archival data ref 8, 9, 22, 24–27; cited from earlier work
# 5HT2AR [16] = target: T3, 5HT2AR; details: inhibition of binding at 10 µM; archival data ref 9, 22, 24–27; cited from earlier work
smiles,measurement,setting,value
OC[C@H]1O[C@@H](n2cnc3c(NC(C4CC4)C4CC4)ncnc32)[C@H](O)[C@@H]1O [compound 6],Ki,A2AAR; read-out: A2AAR Ki,1370 nM
"CNC(=O)[C@H]1O[C@@H](n2cnc3c(N)ncnc32)[C@H](O)[C@@H]1O [compound 7, reference compound]",Ki,A1AR [1],84 nM
Nc1nc(Cl)nc2c1ncn2[C@H]1[C@H](O)[C@H](O)[C@]2(CO)C[C@H]12 [compound 12],Ki,A3AR [2],85 nM
same,Ki,A1AR [1],273 nM
CNc1nc(Cl)nc2c1ncn2[C@H]1[C@H](O)[C@H](O)[C@]2(CO)C[C@H]12 [compound 13],Ki,A3AR [3],23 nM
same,Ki,A1AR [1],1470 nM
same,A2AAR % inhibition,A2AAR; inhibition of binding at 10 µM,<10% (r) ^c
"OC[C@@]12C[C@@H]1[C@@H](n1cnc3c(NC(C4CC4)C4CC4)nc(Cl)nc31)[C@H](O)[C@@H]2O [compound 14, (1R,2R,3S,4R,5S)-4-(2-Chloro-6-((dicyclopropylmethyl)amino)-9H-purin-9-yl)-1-(hydroxymethyl)bicyclo[3.1.0]hexane-2,3-diol]",agonist activity at 5HT2CR,5HT2CR [4],no appreciable agonist or partial agonist activity
same,agonist or antagonist activity at 5HT2AR,5HT2AR [5],no activity as agonist or antagonist
"CNC(=O)[C@@]12C[C@@H]1[C@@H](n1cnc3c(NC(C4CC4)C4CC4)nc(Cl)nc31)[C@H](O)[C@@H]2O [compound 23, (1S,2R,3S,4R,5S)-4-(2-Chloro-6-((dicyclopropylmethyl)amino)-9H-purin-9-yl)-2,3-dihydroxy-N-methylbicyclo[3.1.0]hexane-1-carboxamide]","Stability in plasma, % remaining at 120 min, Human",[6],104%
same,remaining at 2 h,[6],~100%
same,agonist activity at 5HT2CR,5HT2CR [4],no appreciable agonist or partial agonist activity
same,agonist or antagonist activity at 5HT2AR,5HT2AR [5],no activity as agonist or antagonist
same,IC50,[7],> 30000 nM
same,Papp B→A,CACO cell permeability; Caco-2,46.2 ×10⁻⁶ cm/s
same,Papp A→B,"CACO cell permeability; Caco-2, Papp, A->B, CACO-2 cells",4.73 ×10⁻⁶ cm/s
same,CC50,[8],> 30000 nM
same,agonist activity at 5HT2BR,5HT2BR [9],no appreciable agonist or partial agonist activity
"COC(=O)[C@@]12C[C@@H]1[C@@H](n1cnc3c(NC(C4CC4)C4CC4)nc(Cl)nc31)[C@H](O)[C@@H]2O [compound 25, Methyl (1S,2R,3S,4R,5S)-4-(2-Chloro-6-((dicyclopropylmethyl)amino)-9H-purin-9-yl)-2,3-dihydroxybicyclo[3.1.0]hexane-1-carboxylate]","Stability in plasma, % remaining at 120 min, Human",[6],95.3%
same,remaining at 2 h,[6],~100%
same,agonist activity at 5HT2CR,5HT2CR [4],no appreciable agonist or partial agonist activity
same,ligand efficiency (LE) in 5HT2BR binding,5HT2BR [10],0.37
same,agonist or antagonist activity at 5HT2AR,5HT2AR [5],no activity as agonist or antagonist
same,IC50,[7],≥ 20000 nM
same,"Papp, A->B",CACO-2 cells,18.47 10^−6 cm/sec
same,CC50,[8],> 30000 nM
same,agonist activity at 5HT2BR,"5HT2BR [9]; 10 µM, result in words",no appreciable agonist or partial agonist activity
"CCOC(=O)[C@@]12C[C@@H]1[C@@H](n1cnc3c(NC(C4CC4)C4CC4)nc(Cl)nc31)[C@H](O)[C@@H]2O [compound 26, Ethyl (1S,2R,3S,4R,5S)-4-(2-chloro-6-((dicyclopropylmethyl)amino)-9H-purin-9-yl)-2,3-dihydroxybicyclo[3.1.0]hexane-1-carboxylate]",agonist activity at 5HT2CR,5HT2CR [4],did not display significant; also recorded: no appreciable agonist or partial agonist activity
same,agonist or antagonist activity at 5HT2AR,5HT2AR [5],did not display significant agonist or antagonist activity; also recorded: no activity as agonist or antagonist
same,agonist activity at 5HT2BR,5HT2BR [9],did not display significant; also recorded: no appreciable agonist or partial agonist activity
"CCOC(=O)[C@@]12C[C@@H]1[C@@H](n1cnc3c(N(C)C)nc(Cl)nc31)[C@H](O)[C@@H]2O [compound 29, Ethyl (1S,2R,3S,4R,5S)-4-(2-chloro-6-(dimethylamino)-9H-purin-9-yl)-2,3-dihydroxybicyclo[3.1.0]hexane-1-carboxylate]",affinity at the A3AR,A3AR [11]; result in words,no measurable affinity
"CN(C)c1nc(Cl)nc2c1ncn2[C@H]1[C@H](O)[C@H](O)[C@]2(C(=O)O)C[C@H]12 [compound 30, (1S,2R,3S,4R,5S)-4-(2-Chloro-6-(dimethylamino)-9H-purin-9-yl)-2,3-dihydroxybicyclo [3.1.0]hexane-1-carboxylic acid]",binding at the human 5HT5AR,human 5HT5AR,bound weakly
"NCCNC(=O)[C@@]12C[C@@H]1[C@@H](n1cnc3c(NC(C4CC4)C4CC4)nc(Cl)nc31)[C@H](O)[C@@H]2O [compound 31, (1S,2R,3S,4R,5S)-N-(2-Aminoethyl)-4-(2-chloro-6-((dicyclopropylmethyl)amino)-9H-purin-9-yl)-2,3-dihydroxybicyclo[3.1.0]hexane-1-carboxamide]",Ki,A3AR [11],8110 ± 1270 nM
same,Ki,A1AR [12],2580 ± 1220 nM
same,Ki,5HT2CR [13],142 ± 1 nM
same,Ki,5HT2BR [10],630 ± 146 nM
same,inhibition at 10 µM,hA2AAR,23 ± 5%
same,inhibition at 10 µM,5HT2AR [14],< 10%
"NCCCNC(=O)[C@@]12C[C@@H]1[C@@H](n1cnc3c(NC(C4CC4)C4CC4)nc(Cl)nc31)[C@H](O)[C@@H]2O [compound 32, (1S,2R,3S,4R,5S)-N-(3-Aminopropyl)-4-(2-chloro-6-((dicyclopropylmethyl)amino)-9H-purin-9-yl)-2,3-dihydroxybicyclo[3.1.0]hexane-1-carboxamide]",inhibition at 10 µM,A3AR [11]; read-out: A3AR % inhibition,55 ± 1%
same,inhibition at 10 µM,A1AR [12]; read-out: A1AR % inhibition,45 ± 4%
same,Ki,5HT2CR [13],137 ± 19 nM
same,Ki,5HT2BR [10],1120 ± 310 nM
same,inhibition at 10 µM,hA2AAR,26 ± 5%
same,inhibition at 10 µM,5HT2AR [14],< 10%
CNC(=O)[C@@]12C[C@@H]1[C@@H](n1cnc3c(NCc4cccc(Cl)c4)nc(Cl)nc31)[C@H](O)[C@@H]2O [compound 35],Ki,5HT2CR [15],168 ± 47 nM
same,5HT2AR % inhibition,5HT2AR [16],35%
CNC(=O)[C@@]12C[C@@H]1[C@@H](n1cnc3c(N(C)C)nc(C#Cc4ccc(Cl)s4)nc31)[C@H](O)[C@@H]2O [compound 42],reduction of A3AR affinity,A3AR [11]; 39 vs. 42,34 fold
